Measured values from patent US6369069B1 (Aventis Pharma Deutschland GmbH, priority 1998, dated 2002).

Tested on: Na^+-dependent Cl^−/HCO3^− exchanger (NCBE)
Test: Inhibition of the Na+-dependent Cl−/HCO3− exchanger (NCBE) in human endothelial cells (pHi recovery, BCECF fluorescence, FLIPR)
Assay type: cell-based
Settings: 10 μM
Procedure, shortened: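 ECV-304 cells loaded with 5 μM BCECF-AM in NH4Cl-containing saline, then placed in Na+/HCO3−-free buffer to acidify. pHi recovery started with Na+/HCO3− buffer (50 μM HOE 642) plus compound at various concentrations. Fluorescence kinetics over 2 min at 35 °C, normalised to 100% and 0% (HCO3−-free) controls.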

| Compound | Residual activity % of the NCBE at 10 μM [%] |
| --- | --- |
| N#CNS(=O)(=O)c1ccccc1-c1ccc(CN(Cc2ccccc2)C(=O)C(NC(=O)OCc2ccccc2)c2ccccc2)cc1 (stereo not shown) [Example 242] | 72.4 |
| N#CNS(=O)(=O)c1ccccc1-c1ccc(CN(Cc2ccccc2)C(=O)Cc2ccccc2[N+](=O)[O-])cc1 [Example 243] | 99.9 |
| N#CNS(=O)(=O)c1ccccc1-c1ccc(CN(Cc2ccccc2)C(=O)CCCCc2ccccc2)cc1 [Example 244] | 60.4 |
| N#CNS(=O)(=O)c1ccccc1-c1ccc(CN(Cc2ccccc2)C(=O)C(=O)c2ccco2)cc1 [Example 245] | 73.0 |
| C#CCN(Cc1ccc(-c2ccccc2S(=O)(=O)NC#N)cc1)C(=O)C(NC(=O)OCc1ccccc1)c1ccccc1 (stereo not shown) [Example 246] | 65.0 |
| C#CCN(Cc1ccc(-c2ccccc2S(=O)(=O)NC#N)cc1)C(=O)CCCCc1ccccc1 [Example 247] | 74.6 |
| C#CCN(Cc1ccc(-c2ccccc2S(=O)(=O)NC#N)cc1)C(=O)C(=O)c1ccco1 [Example 248] | 66.6 |
| C#CCN(Cc1ccc(-c2ccccc2S(=O)(=O)NC#N)cc1)C(=O)CCC1CCCCC1 [Example 249] | 76.1 |
| N#CNS(=O)(=O)c1ccccc1-c1ccc(CN(Cc2cccs2)C(=O)Cc2cccs2)cc1 [Example 250] | 41.1 |
| N#CNS(=O)(=O)c1ccccc1-c1ccc(CN(Cc2cccs2)C(=O)C(NC(=O)OCc2ccccc2)c2ccccc2)cc1 (stereo not shown) [Example 251] | 83.9 |
| N#CNS(=O)(=O)c1ccccc1-c1ccc(CN(Cc2cccs2)C(=O)Cc2ccccc2[N+](=O)[O-])cc1 [Example 252] | 44.5 |
| N#CNS(=O)(=O)c1ccccc1-c1ccc(CN(Cc2cccs2)C(=O)CCCCc2ccccc2)cc1 [Example 253] | 35.3 |
| N#CNS(=O)(=O)c1ccccc1-c1ccc(CN(Cc2cccs2)C(=O)C(=O)c2ccco2)cc1 [Example 254] | 64.5 |
| N#CNS(=O)(=O)c1ccccc1-c1ccc(CN(Cc2cccs2)C(=O)CCC2CCCCC2)cc1 [Example 255] | 61.0 |
| N#CNS(=O)(=O)c1ccccc1-c1ccc(CN(CC2CCCCC2)C(=O)Cc2cccs2)cc1 [Example 256] | 36.4 |
| N#CNS(=O)(=O)c1ccccc1-c1ccc(CN(CC2CCCCC2)C(=O)Cc2ccccc2[N+](=O)[O-])cc1 [Example 257] | 54.6 |
| N#CNS(=O)(=O)c1ccccc1-c1ccc(CN(CC2CCCCC2)C(=O)C(=O)c2ccco2)cc1 [Example 258] | 95.8 |
| N#CNS(=O)(=O)c1ccccc1-c1ccc(CN(Cc2ccc(Cl)c(Cl)c2)C(=O)Cc2cccs2)cc1 [Example 259] | 40.1 |
| N#CNS(=O)(=O)c1ccccc1-c1ccc(CN(Cc2ccc(Cl)c(Cl)c2)C(=O)C(NC(=O)OCc2ccccc2)c2ccccc2)cc1 (stereo not shown) [Example 260] | 69.8 |
| N#CNS(=O)(=O)c1ccccc1-c1ccc(CN(Cc2ccc(Cl)c(Cl)c2)C(=O)Cc2ccccc2[N+](=O)[O-])cc1 [Example 261] | 67.7 |
| N#CNS(=O)(=O)c1ccccc1-c1ccc(CN(Cc2ccc(Cl)c(Cl)c2)C(=O)CCCCc2ccccc2)cc1 [Example 262] | 45.3 |

| Compound | Residual activity % of the NCBE at 10 μM [%] |
| --- | --- |
| N#CNS(=O)(=O)c1ccccc1-c1ccc(CN(Cc2ccc(Cl)c(Cl)c2)C(=O)C(=O)c2ccco2)cc1 [Example 263] | 54.0 |
| N#CNS(=O)(=O)c1ccccc1-c1ccc(CN(Cc2ccc(Cl)c(Cl)c2)C(=O)CCC2CCCCC2)cc1 [Example 264] | 74.3 |
| N#CNS(=O)(=O)c1ccccc1-c1ccc(CN(CC2CCCCC2)C(=O)C(NC(=O)OCc2ccccc2)c2ccccc2)cc1 (stereo not shown) [Example 265] | 68.9 |
| N#CNS(=O)(=O)c1ccccc1-c1ccc(CN(CC2CCCCC2)C(=O)CCCCc2ccccc2)cc1 [Example 266] | 79.7 |
| N#CNS(=O)(=O)c1ccccc1-c1ccc(CN(CC2CCCCC2)C(=O)CCC2CCCCC2)cc1 [Example 267] | 57.9 |
| COC(=O)C(c1ccccc1)N(Cc1ccc(-c2ccccc2S(=O)(=O)NC#N)cc1)C(=O)Cc1cccs1 (stereo not shown) [Example 268] | 79.3 |
| CC(C)(C)OC(=O)C(c1ccccc1)N(Cc1ccc(-c2ccccc2S(=O)(=O)NC#N)cc1)C(=O)Cc1cccs1 (stereo not shown) [Example 269] | 94.4 |
| N#CNS(=O)(=O)c1ccccc1-c1ccc(CN(Cc2ccc(Cl)cc2Cl)C(=O)Cc2cccs2)cc1 [Example 270] | 33.9 |
| N#CNS(=O)(=O)c1ccccc1-c1ccc(CN(Cc2cccc3ccccc23)C(=O)Cc2cccs2)cc1 [Example 271] | 15.9 |
| N#CNS(=O)(=O)c1ccccc1-c1ccc(CN(CCc2ccc(S(N)(=O)=O)cc2)C(=O)Cc2cccs2)cc1 [Example 272] | 65.0 |
| N#CNS(=O)(=O)c1ccccc1-c1ccc(CN(Cc2cccc(Cl)c2)C(=O)Cc2cccs2)cc1 [Example 273] | 32.4 |
| COC(=O)C(c1ccccc1)N(Cc1ccc(-c2ccccc2S(=O)(=O)NC#N)cc1)C(=O)Cc1ccccc1Br (stereo not shown) [Example 274] | 73.6 |
| CC(C)(C)OC(=O)C(c1ccccc1)N(Cc1ccc(-c2ccccc2S(=O)(=O)NC#N)cc1)C(=O)Cc1ccccc1Br (stereo not shown) [Example 275] | 54.6 |
| N#CNS(=O)(=O)c1ccccc1-c1ccc(CN(Cc2ccc(Cl)cc2Cl)C(=O)Cc2ccccc2Br)cc1 [Example 276] | 36.8 |
| N#CNS(=O)(=O)c1ccccc1-c1ccc(CN(Cc2cccc3ccccc23)C(=O)Cc2ccccc2Br)cc1 [Example 277] | 36.3 |
| N#CNS(=O)(=O)c1ccccc1-c1ccc(CN(Cc2cccc(Cl)c2)C(=O)Cc2ccccc2Br)cc1 [Example 278] | 31.2 |
| N#CNS(=O)(=O)c1ccccc1-c1ccc(CN(Cc2ccc(Cl)cc2Cl)C(=O)CCS(=O)(=O)c2ccccc2)cc1 [Example 279] | 90.5 |
| N#CNS(=O)(=O)c1ccccc1-c1ccc(CN(Cc2cccc3ccccc23)C(=O)CCS(=O)(=O)c2ccccc2)cc1 [Example 280] | 63.3 |
| N#CNS(=O)(=O)c1ccccc1-c1ccc(CN(Cc2cccc(Cl)c2)C(=O)CCS(=O)(=O)c2ccccc2)cc1 [Example 281] | 68.6 |
| N#CNS(=O)(=O)c1ccccc1-c1ccc(CN(C(=O)Cc2cccs2)C(C(=O)O)c2ccccc2)cc1 (stereo not shown) [Example 282] | 89.0 |
| N#CNS(=O)(=O)c1ccccc1-c1ccc(CN(Cc2ccc(Cl)cc2Cl)C(=O)Cc2ccc(O)cc2)cc1 [Example 283] | 80.0 |

| Compound | Residual activity % of the NCBE at 10 μM [%] |
| --- | --- |
| N#CNS(=O)(=O)c1ccccc1-c1ccc(CN(Cc2cccc3ccccc23)C(=O)Cc2ccc(O)cc2)cc1 [Example 284] | 52.9 |
| N#CNS(=O)(=O)c1ccccc1-c1ccc(CN(Cc2cccc(Cl)c2)C(=O)Cc2ccc(O)cc2)cc1 [Example 285] | 58.8 |
| COC(=O)C(c1ccccc1)N(Cc1ccc(-c2ccccc2S(=O)(=O)NC#N)cc1)C(=O)CCc1cccs1 (stereo not shown) [Example 286] | 68.8 |
| CC(C)(C)OC(=O)C(c1ccccc1)N(Cc1ccc(-c2ccccc2S(=O)(=O)NC#N)cc1)C(=O)CCc1cccs1 (stereo not shown) [Example 287] | 51.1 |
| N#CNS(=O)(=O)c1ccccc1-c1ccc(CN(Cc2ccc(Cl)cc2Cl)C(=O)CCc2cccs2)cc1 [Example 288] | 63.1 |
| N#CNS(=O)(=O)c1ccccc1-c1ccc(CN(Cc2cccc3ccccc23)C(=O)CCc2cccs2)cc1 [Example 289] | 39.2 |
| N#CNS(=O)(=O)c1ccccc1-c1ccc(CN(Cc2cccc(Cl)c2)C(=O)CCc2cccs2)cc1 [Example 290] | 45.8 |
| N#CNS(=O)(=O)c1ccccc1-c1ccc(CN(Cc2ccccc2Cl)C(=O)Cc2ccccc2Cl)cc1 [Example 291] | 23.7 |
| N#CNS(=O)(=O)c1ccccc1-c1ccc(CN(Cc2cccc3ccccc23)C(=O)Cc2ccccc2Cl)cc1 [Example 293] | 55.1 |
| N#CNS(=O)(=O)c1ccccc1-c1ccc(CN(CCc2ccc(S(N)(=O)=O)cc2)C(=O)Cc2ccccc2Cl)cc1 [Example 294] | 82.7 |
| N#CNS(=O)(=O)c1ccccc1-c1ccc(CN(Cc2cccs2)C(=O)NCc2ccccc2)cc1 [Example 295] | 8.0 |
| N#CNS(=O)(=O)c1ccccc1-c1ccc(CN(Cc2cccs2)C(=O)NC2CCCCC2)cc1 [Example 296] | 31.7 |
| N#CNS(=O)(=O)c1ccccc1-c1ccc(CN(Cc2ccccc2)C(=O)Nc2c(F)cccc2F)cc1 [Example 297] | 80.4 |
| CC(C)NC(=O)N(Cc1ccccc1)Cc1ccc(-c2ccccc2S(=O)(=O)NC#N)cc1 [Example 298] | 74.7 |
| N#CNS(=O)(=O)c1ccccc1-c1ccc(CN(Cc2ccccc2)C(=O)NCc2ccccc2)cc1 [Example 299] | 48.6 |
| N#CNS(=O)(=O)c1ccccc1-c1ccc(CN(Cc2ccccc2)C(=O)NC2CCCCC2)cc1 [Example 300] | 29.4 |
| COc1cccc(CN(Cc2ccc(-c3ccccc3S(=O)(=O)NC#N)cc2)C(=O)Nc2c(F)cccc2F)c1 [Example 301] | 87.9 |
| COc1cccc(CN(Cc2ccc(-c3ccccc3S(=O)(=O)NC#N)cc2)C(=O)NC(C)C)c1 [Example 302] | 80.4 |
| COc1cccc(CN(Cc2ccc(-c3ccccc3S(=O)(=O)NC#N)cc2)C(=O)NCc2ccccc2)c1 [Example 303] | 65.8 |
